Laboratory results from patent US10294202B2, “Pyrrolidinones as herbicides” (FMC Corporation, priority 2013, dated 2019).

How the values were obtained:
blackgrass = test: Test A postemergence herbicide test; assay type: in vivo, Alopecurus myosuroides
Outline: (§1)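 Young potted plants in a loam–sand mix, one- to two-leaf stage and 2–10 cm tall, receive the test chemical postemergence and stay in a greenhouse for approximately 10 days. Injury is then judged by eye against untreated plants, scored 0 (none) to 100 (complete control).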

giant foxtail = test: Test A pre-/postemergence herbicide test; assay type: in vivo, Setaria faberii
Outline: (§2)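 Visual 0–100 ratings (100 = complete control) made about 10 days after treatment, greenhouse-held plants compared with untreated controls. Treatments: postemergence sprays on one- to two-leaf plants (2–10 cm tall) and preemergence directed soil sprays after planting in loam–sand, chemicals formulated in non-phytotoxic solvent containing surfactant.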

rice = test: Test B flooded paddy test; assay type: in vivo, Oryza sativa; details: 500 g ai/ha, Flood; scale of 0 to 100 where 0 is no effect and 100 is complete control
Outline: (§3)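 First, plants reach the 2-leaf stage; next, pots are flooded to 3 cm and compound is delivered into the water; finally, after 13 to 15 greenhouse days at constant depth, injury is graded visually from 0 to 100 against controls.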

galium = test: Test A postemergence herbicide test; assay type: in vivo, Galium aparine; details: 125 g ai/ha, visual rating on 0 to 100 scale (0 no effect, 100 complete control), approx. 10 days
Outline: as §1

barnyardgrass [1] = test: Test A pre-/postemergence herbicide test; assay type: in vivo, Echinochloa crus-galli
Outline: as §2

kochia = test: Test A pre-/postemergence herbicide test; assay type: in vivo, Kochia scoparia; details: for Plant response rating, Kochia: 125 g ai/ha; for Kochia plant response rating: 500 g ai/ha
Outline: as §2

corn = test: Test A pre-/postemergence herbicide test; assay type: in vivo, Zea mays; details: Postemergence
Outline: as §2

wheat = test: Test A pre-/postemergence herbicide test; assay type: in vivo, Triticum aestivum; details: Postemergence, 125 g ai/ha; visual rating on 0 to 100 scale (0 no effect, 100 complete control), approx. 10 days
Outline: as §2

ducksalad = test: Test B flooded paddy test; assay type: in vivo, Heteranthera limosa; details: 500 g ai/ha, Flood; scale of 0 to 100 where 0 is no effect and 100 is complete control
Outline: as §3

pigweed = test: Test A pre-/postemergence herbicide test; assay type: in vivo, Amaranthus retroflexus; details: for Plant response rating, Pigweed: 125 g ai/ha; for Pigweed plant response rating: 500 g ai/ha
Outline: as §2

sedge, umbrella = test: Test B flooded paddy test; assay type: in vivo, Cyperus difformis; details: 500 g ai/ha, Flood; scale of 0 to 100 where 0 is no effect and 100 is complete control
Outline: as §3

ragweed = test: Test A pre-/postemergence herbicide test; assay type: in vivo, Ambrosia elatior; details: for Plant response rating, Ragweed: 125 g ai/ha; for Ragweed plant response rating: 500 g ai/ha
Outline: as §2

ryegrass, Italian = test: Test A pre-/postemergence herbicide test; assay type: in vivo, Lolium multiflorum; details: for Plant response rating, Ryegrass, Italian: 125 g ai/ha; for Ryegrass, Italian plant response rating: 500 g ai/ha
Outline: as §2

barnyardgrass [2] = test: Test B flooded paddy test; assay type: in vivo, Echinochloa crus-galli; details: 500 g ai/ha, Flood; scale of 0 to 100 where 0 is no effect and 100 is complete control
Outline: as §3

[3] = 125 g ai/ha, visual rating on 0 to 100 scale (0 no effect, 100 complete control), approx. 10 days
[4] = 500 g ai/ha, 0 to 100 scale (0 no effect, 100 complete control)
[5] = Postemergence, 125 g ai/ha, visual rating on 0 to 100 scale (0 no effect, 100 complete control), approx. 10 days
[6] = Postemergence, 500 g ai/ha, 0 to 100 scale (0 no effect, 100 complete control)
[7] = Preemergence, 125 g ai/ha, 0 to 100 scale where 0 is no effect and 100 is complete control
[8] = Preemergence, 500 g ai/ha, visual rating on 0 to 100 scale (0 no effect, 100 complete control)
[9] = Postemergence, visual rating on 0 to 100 scale (0 no effect, 100 complete control), approx. 10 days
[10] = Preemergence, 0 to 100 scale where 0 is no effect and 100 is complete control
[11] = Preemergence, visual rating on 0 to 100 scale (0 no effect, 100 complete control)

In the case of `O=C1NCC(c2ccc(Br)c(Br)c2)C1C(=O)Nc1ccccc1F` (stereo not drawn) [Compound 339], the “Plant response rating, Blackgrass” value (blackgrass; [3]) is reported as 0, the “Plant response rating, Blackgrass” value (blackgrass; [4]) is reported as 0 and the “Plant response rating, Foxtail, Giant” value (giant foxtail; [5]) is reported as 60. The “Plant response rating, Foxtail, Giant” value (giant foxtail; [6]) was 60, the “Plant response rating, Foxtail, Giant” value (giant foxtail; [7]) was 70 and the “Foxtail, Giant plant response rating” value (giant foxtail; [8]) was 80. The “Plant response rating, Rice” value (rice) was 0, the “Plant response rating, Galium” value (galium) was 0 and the “Plant response rating, Barnyardgrass” value (barnyardgrass [1]; [5]) was 40. The “Plant response rating, Barnyardgrass” value (barnyardgrass [1]; [6]) was 60, the “Plant response rating, Barnyardgrass” value (barnyardgrass [1]; [7]) was 60 and the “Barnyardgrass plant response rating” value (barnyardgrass [1]; [8]) was 80. For the same compound, the “Plant response rating, Kochia” value (kochia; [9]) was 0, the “Plant response rating, Kochia” value (kochia; [10]) was 0 and the “Kochia plant response rating” value (kochia; [11]) was 0. The “Plant response rating, Corn” value (corn; [3]) was 0, the “Plant response rating, Corn” value (corn; [4]) was 0 and the “Plant response rating, Wheat” value (wheat) was 0. The “Plant response rating, Ducksalad” value (ducksalad) was 65, the “Plant response rating, Pigweed” value (pigweed; [9]) was 0 and the “Plant response rating, Pigweed” value (pigweed; [10]) was 0. For the same compound, the “Pigweed plant response rating” value (pigweed; [11]) was 0, the “Plant response rating, Sedge, Umbrella” value (sedge, umbrella) was 0 and the “Plant response rating, Ragweed” value (ragweed; [9]) was 0. The “Plant response rating, Ragweed” value (ragweed; [10]) was 0, the “Ragweed plant response rating” value (ragweed; [11]) was 0 and the “Plant response rating, Ryegrass, Italian” value (ryegrass, Italian; [9]) was 0. The “Plant response rating, Ryegrass, Italian” value (ryegrass, Italian; [10]) was 0, the “Ryegrass, Italian plant response rating” value (ryegrass, Italian; [11]) was 20 and the “Plant response rating, Barnyardgrass” value (barnyardgrass [2]) was 40.

For `O=C1NCC(c2ccc(Br)c(Br)c2)C1C(=O)Nc1ccc(F)cc1F` (stereo not drawn) [Compound 340], the “Plant response rating, Blackgrass” value (blackgrass; [3]) was 0, the “Plant response rating, Blackgrass” value (blackgrass; [4]) was 20 and the “Plant response rating, Foxtail, Giant” value (giant foxtail; [5]) was 30. The “Plant response rating, Foxtail, Giant” value (giant foxtail; [6]) was 90, the “Plant response rating, Foxtail, Giant” value (giant foxtail; [7]) was 80 and the “Foxtail, Giant plant response rating” value (giant foxtail; [8]) was 90. The “Plant response rating, Rice” value (rice) was 0, the “Plant response rating, Galium” value (galium) was 0 and the “Plant response rating, Barnyardgrass” value (barnyardgrass [1]; [5]) was 30. For the same compound, the “Plant response rating, Barnyardgrass” value (barnyardgrass [1]; [6]) was 50, the “Plant response rating, Barnyardgrass” value (barnyardgrass [1]; [7]) was 60 and the “Barnyardgrass plant response rating” value (barnyardgrass [1]; [8]) was 80. For the same compound, the “Plant response rating, Kochia” value (kochia; [9]) was 0, the “Plant response rating, Kochia” value (kochia; [10]) was 0 and the “Kochia plant response rating” value (kochia; [11]) was 0. For the same compound, the “Plant response rating, Corn” value (corn; [3]) was 0, the “Plant response rating, Corn” value (corn; [4]) was 0 and the “Plant response rating, Wheat” value (wheat) was 0. For the same compound, the “Plant response rating, Ducksalad” value (ducksalad) was 50, the “Plant response rating, Pigweed” value (pigweed; [9]) was 0 and the “Plant response rating, Pigweed” value (pigweed; [10]) was 0. For the same compound, the “Pigweed plant response rating” value (pigweed; [11]) was 0, the “Plant response rating, Sedge, Umbrella” value (sedge, umbrella) was 0 and the “Plant response rating, Ragweed” value (ragweed; [9]) was 0. The “Plant response rating, Ragweed” value (ragweed; [10]) was 0, the “Ragweed plant response rating” value (ragweed; [11]) was 0 and the “Plant response rating, Ryegrass, Italian” value (ryegrass, Italian; [9]) was 0. For the same compound, the “Plant response rating, Ryegrass, Italian” value (ryegrass, Italian; [10]) was 0, the “Ryegrass, Italian plant response rating” value (ryegrass, Italian; [11]) was 20 and the “Plant response rating, Barnyardgrass” value (barnyardgrass [2]) was 0.

In the case of `O=C1NCC(c2ccc(Br)c(Br)c2)C1C(=O)Nc1ccc(F)c(F)c1F` (stereo not drawn) [Compound 342], the “Plant response rating, Blackgrass” value (blackgrass; [3]) is reported as 0, the “Plant response rating, Blackgrass” value (blackgrass; [4]) is reported as 0 and the “Plant response rating, Foxtail, Giant” value (giant foxtail; [5]) is reported as 40. For the same compound, the “Plant response rating, Foxtail, Giant” value (giant foxtail; [6]) was 50, the “Plant response rating, Foxtail, Giant” value (giant foxtail; [7]) was 70 and the “Foxtail, Giant plant response rating” value (giant foxtail; [8]) was 90. For the same compound, the “Plant response rating, Rice” value (rice) was 0, the “Plant response rating, Galium” value (galium) was 0 and the “Plant response rating, Barnyardgrass” value (barnyardgrass [1]; [5]) was 30. For the same compound, the “Plant response rating, Barnyardgrass” value (barnyardgrass [1]; [6]) was 60, the “Plant response rating, Barnyardgrass” value (barnyardgrass [1]; [7]) was 50 and the “Barnyardgrass plant response rating” value (barnyardgrass [1]; [8]) was 80. For the same compound, the “Plant response rating, Kochia” value (kochia; [9]) was 20, the “Plant response rating, Kochia” value (kochia; [10]) was 0 and the “Kochia plant response rating” value (kochia; [11]) was 0. The “Plant response rating, Corn” value (corn; [3]) was 0, the “Plant response rating, Corn” value (corn; [4]) was 40 and the “Plant response rating, Wheat” value (wheat) was 0. The “Plant response rating, Ducksalad” value (ducksalad) was 0, the “Plant response rating, Pigweed” value (pigweed; [9]) was 0 and the “Plant response rating, Pigweed” value (pigweed; [10]) was 0. For the same compound, the “Pigweed plant response rating” value (pigweed; [11]) was 50, the “Plant response rating, Sedge, Umbrella” value (sedge, umbrella) was 0 and the “Plant response rating, Ragweed” value (ragweed; [9]) was 0. The “Plant response rating, Ragweed” value (ragweed; [10]) was 0, the “Ragweed plant response rating” value (ragweed; [11]) was 0 and the “Plant response rating, Ryegrass, Italian” value (ryegrass, Italian; [9]) was 0. The “Plant response rating, Ryegrass, Italian” value (ryegrass, Italian; [10]) was 0, the “Ryegrass, Italian plant response rating” value (ryegrass, Italian; [11]) was 20 and the “Plant response rating, Barnyardgrass” value (barnyardgrass [2]) was 0.
